Values joined by “and” are separate entries in the source; they are usually repeats but may differ in a detail not shown here. Identical values can stand only once. Each block holds one molecule with its values, some of them ahead of it.
How the values were obtained:
Test in all cases: Competitive isoTOP-ABPP, cell lysates
Format in all cases: binding
CASP8 C360 (Q14790) = CASP8 C360 (Q14790) (Homo sapiens, UniProt Q14790); conditions: for isoTOP-ABPP ratio Q14790_C360: invitro; for isoTOP-ABPP reactivity ratio, Q14790_C360: 500 μm
KDM4B C694 (O94953) = biological target: T1, KDM4B C694 (O94953) (Homo sapiens, UniProt O94953); conditions: for R value (DMSO/fragment) / isoTOP-ABPP ratio, O94953_C694: 500 μM
T1 sequence (O94953 1-1096): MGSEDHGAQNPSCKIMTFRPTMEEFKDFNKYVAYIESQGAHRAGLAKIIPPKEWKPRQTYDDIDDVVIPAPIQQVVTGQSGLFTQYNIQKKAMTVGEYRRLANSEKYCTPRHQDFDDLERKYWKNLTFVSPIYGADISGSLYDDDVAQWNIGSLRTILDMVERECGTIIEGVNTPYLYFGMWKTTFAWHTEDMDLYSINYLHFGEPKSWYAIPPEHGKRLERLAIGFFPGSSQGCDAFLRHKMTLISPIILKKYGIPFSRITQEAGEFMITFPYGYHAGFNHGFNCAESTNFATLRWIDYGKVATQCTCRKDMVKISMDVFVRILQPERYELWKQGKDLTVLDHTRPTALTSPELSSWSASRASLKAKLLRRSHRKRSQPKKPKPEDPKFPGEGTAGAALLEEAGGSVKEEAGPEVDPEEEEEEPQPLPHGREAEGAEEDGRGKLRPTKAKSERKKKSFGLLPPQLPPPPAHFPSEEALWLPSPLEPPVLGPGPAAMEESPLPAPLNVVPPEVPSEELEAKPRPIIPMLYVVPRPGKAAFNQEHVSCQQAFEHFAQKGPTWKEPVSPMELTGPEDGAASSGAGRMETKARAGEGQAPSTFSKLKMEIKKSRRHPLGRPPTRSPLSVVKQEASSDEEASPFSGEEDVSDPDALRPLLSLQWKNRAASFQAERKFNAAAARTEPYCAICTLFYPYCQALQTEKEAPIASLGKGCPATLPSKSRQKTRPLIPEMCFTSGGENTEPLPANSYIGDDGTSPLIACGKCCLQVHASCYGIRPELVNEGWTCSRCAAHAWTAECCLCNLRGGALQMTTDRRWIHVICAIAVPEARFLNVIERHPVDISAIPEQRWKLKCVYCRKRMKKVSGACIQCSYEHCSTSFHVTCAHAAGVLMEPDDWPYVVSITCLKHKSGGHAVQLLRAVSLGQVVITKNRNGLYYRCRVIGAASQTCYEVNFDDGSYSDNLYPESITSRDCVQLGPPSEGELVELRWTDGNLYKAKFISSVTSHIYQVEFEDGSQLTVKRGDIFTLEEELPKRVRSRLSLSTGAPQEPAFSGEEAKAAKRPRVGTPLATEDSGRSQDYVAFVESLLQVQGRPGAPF

LRBA C1704 (P50851) = LRBA C1704 (P50851) (Homo sapiens, UniProt P50851)
MGMT C145 (P16455) = biological target: T2, MGMT C145 (P16455) (Homo sapiens, UniProt P16455)
T2 sequence (P16455 1-207): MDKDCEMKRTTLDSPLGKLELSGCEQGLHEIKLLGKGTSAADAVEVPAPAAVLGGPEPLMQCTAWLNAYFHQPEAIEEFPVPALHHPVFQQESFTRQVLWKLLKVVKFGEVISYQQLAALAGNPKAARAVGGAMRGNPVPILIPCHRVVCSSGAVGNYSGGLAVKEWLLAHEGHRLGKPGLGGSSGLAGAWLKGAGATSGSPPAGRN

CDK5 C157 (Q00535) = CDK5 C157 (Q00535) (Homo sapiens, UniProt Q00535); conditions: for isoTOP-ABPP ratio (reactivity profile), Q00535_C157: 500 μm in-vitro ramos; for isoTOP-ABPP reactivity ratio, Q00535_C157: 500 μm
USP16 C205 (Q9Y5T5) = USP16 C205 (Q9Y5T5) (Homo sapiens, UniProt Q9Y5T5); conditions: for isoTOP-ABPP ratio, Q9Y5T5_C205: invitro
PFKFB4 C159 (Q16877) = PFKFB4 C159 (Q16877) (Homo sapiens, UniProt Q16877); conditions: for isoTOP-ABPP ratio, Q16877_C159: 500 μM, invitro; for isoTOP-ABPP reactivity ratio, Q16877_C159: 500 μm, in-vitro_ramos
Sequence of PFKFB4 C159 (Q16877) (Q16877 whole entry): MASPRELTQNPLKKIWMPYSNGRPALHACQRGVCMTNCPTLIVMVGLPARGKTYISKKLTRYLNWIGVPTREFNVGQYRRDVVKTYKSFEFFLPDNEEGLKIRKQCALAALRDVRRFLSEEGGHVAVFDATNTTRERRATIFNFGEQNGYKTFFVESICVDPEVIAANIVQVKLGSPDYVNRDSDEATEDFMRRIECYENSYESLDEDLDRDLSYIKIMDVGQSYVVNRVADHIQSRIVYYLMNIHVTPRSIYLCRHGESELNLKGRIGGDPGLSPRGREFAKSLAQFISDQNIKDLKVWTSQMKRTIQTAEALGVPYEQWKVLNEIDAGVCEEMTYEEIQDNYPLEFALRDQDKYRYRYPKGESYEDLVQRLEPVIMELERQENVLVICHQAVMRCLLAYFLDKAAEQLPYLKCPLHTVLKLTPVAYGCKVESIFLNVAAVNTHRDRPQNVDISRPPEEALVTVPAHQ

Sequence of LRBA C1704 (P50851) (P50851 whole entry): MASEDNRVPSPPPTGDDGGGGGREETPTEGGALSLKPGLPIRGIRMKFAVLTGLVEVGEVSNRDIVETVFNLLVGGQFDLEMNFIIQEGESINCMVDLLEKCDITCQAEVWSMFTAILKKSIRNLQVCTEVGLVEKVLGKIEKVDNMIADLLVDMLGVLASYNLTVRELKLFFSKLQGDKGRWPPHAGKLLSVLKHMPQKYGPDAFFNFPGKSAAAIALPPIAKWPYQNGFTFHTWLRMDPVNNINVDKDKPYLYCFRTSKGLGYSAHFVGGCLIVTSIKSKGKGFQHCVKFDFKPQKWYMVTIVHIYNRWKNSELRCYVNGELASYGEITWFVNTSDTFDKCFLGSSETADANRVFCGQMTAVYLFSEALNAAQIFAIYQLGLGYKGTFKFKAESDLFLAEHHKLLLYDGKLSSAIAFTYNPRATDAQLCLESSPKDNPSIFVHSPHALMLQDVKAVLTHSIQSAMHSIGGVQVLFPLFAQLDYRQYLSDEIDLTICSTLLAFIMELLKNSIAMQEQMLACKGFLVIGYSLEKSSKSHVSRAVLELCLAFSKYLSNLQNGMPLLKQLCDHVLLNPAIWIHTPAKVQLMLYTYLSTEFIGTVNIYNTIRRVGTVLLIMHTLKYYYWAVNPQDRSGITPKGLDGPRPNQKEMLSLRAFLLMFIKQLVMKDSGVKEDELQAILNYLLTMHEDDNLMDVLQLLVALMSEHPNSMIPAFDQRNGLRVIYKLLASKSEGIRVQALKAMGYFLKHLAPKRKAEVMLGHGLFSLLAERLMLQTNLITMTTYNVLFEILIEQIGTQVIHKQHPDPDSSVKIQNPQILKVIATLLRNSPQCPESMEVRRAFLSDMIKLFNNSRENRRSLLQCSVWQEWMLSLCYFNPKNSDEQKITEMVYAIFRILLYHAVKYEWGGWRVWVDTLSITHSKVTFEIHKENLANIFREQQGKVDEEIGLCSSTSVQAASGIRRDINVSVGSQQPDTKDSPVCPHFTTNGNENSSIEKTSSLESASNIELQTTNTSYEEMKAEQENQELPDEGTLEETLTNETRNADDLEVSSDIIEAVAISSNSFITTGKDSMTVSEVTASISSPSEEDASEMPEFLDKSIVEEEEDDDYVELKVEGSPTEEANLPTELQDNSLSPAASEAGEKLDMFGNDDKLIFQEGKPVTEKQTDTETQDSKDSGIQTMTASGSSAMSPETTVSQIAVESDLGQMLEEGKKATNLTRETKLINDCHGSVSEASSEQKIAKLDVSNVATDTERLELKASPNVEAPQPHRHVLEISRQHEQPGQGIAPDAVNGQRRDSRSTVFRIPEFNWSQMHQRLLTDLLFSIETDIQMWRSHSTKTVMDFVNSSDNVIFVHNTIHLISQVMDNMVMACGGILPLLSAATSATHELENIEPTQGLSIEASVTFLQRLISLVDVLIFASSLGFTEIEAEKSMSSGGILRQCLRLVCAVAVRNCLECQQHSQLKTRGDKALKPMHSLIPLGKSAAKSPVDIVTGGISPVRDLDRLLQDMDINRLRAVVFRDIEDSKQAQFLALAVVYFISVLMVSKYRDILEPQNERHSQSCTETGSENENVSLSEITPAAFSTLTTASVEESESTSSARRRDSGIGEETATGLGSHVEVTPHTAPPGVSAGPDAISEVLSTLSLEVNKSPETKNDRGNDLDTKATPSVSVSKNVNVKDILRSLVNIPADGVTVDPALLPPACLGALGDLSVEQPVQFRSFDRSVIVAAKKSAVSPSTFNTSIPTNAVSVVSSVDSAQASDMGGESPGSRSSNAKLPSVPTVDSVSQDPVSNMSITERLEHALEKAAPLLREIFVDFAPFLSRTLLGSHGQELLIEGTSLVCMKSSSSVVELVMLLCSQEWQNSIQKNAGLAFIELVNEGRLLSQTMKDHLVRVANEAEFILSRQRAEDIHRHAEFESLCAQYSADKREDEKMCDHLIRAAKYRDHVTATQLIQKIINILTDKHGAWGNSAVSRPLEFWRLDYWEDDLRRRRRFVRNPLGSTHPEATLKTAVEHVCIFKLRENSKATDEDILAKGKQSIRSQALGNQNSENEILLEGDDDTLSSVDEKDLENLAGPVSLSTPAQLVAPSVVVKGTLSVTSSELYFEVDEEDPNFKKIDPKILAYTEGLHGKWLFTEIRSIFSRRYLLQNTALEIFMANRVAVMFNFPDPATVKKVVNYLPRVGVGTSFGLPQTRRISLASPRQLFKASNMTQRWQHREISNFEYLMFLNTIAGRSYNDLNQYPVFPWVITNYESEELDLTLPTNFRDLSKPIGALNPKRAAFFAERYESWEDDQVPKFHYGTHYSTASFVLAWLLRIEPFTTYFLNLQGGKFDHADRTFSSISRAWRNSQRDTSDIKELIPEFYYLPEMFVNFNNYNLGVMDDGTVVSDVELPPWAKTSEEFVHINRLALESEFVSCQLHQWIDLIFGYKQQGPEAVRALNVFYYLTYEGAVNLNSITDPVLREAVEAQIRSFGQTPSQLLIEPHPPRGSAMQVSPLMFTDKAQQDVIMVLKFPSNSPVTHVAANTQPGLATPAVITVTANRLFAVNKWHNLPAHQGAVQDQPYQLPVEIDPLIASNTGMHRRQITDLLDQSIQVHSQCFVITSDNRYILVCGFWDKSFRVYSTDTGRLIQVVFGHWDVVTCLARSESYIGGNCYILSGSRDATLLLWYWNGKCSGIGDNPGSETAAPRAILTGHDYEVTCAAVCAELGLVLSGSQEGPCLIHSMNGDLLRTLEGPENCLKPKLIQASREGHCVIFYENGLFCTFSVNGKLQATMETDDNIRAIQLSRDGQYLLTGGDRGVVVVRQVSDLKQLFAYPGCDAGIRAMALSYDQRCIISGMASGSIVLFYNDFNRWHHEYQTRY
Sequence of CASP8 C360 (Q14790) (Q14790 whole entry, the tested form may be a part): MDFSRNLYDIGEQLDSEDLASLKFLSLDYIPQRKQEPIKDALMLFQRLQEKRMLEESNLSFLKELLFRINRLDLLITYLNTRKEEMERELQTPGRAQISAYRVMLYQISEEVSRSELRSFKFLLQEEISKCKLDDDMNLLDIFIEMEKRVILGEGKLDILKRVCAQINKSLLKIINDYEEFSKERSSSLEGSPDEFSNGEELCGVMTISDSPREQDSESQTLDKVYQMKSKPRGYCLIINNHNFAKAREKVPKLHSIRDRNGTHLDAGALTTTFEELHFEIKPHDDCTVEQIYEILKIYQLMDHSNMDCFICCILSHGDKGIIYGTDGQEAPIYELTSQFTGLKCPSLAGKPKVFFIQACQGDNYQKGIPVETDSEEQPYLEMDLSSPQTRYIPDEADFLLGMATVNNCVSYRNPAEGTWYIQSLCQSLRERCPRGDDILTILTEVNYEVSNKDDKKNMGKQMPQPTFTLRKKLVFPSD
Sequence of USP16 C205 (Q9Y5T5) (Q9Y5T5 whole entry): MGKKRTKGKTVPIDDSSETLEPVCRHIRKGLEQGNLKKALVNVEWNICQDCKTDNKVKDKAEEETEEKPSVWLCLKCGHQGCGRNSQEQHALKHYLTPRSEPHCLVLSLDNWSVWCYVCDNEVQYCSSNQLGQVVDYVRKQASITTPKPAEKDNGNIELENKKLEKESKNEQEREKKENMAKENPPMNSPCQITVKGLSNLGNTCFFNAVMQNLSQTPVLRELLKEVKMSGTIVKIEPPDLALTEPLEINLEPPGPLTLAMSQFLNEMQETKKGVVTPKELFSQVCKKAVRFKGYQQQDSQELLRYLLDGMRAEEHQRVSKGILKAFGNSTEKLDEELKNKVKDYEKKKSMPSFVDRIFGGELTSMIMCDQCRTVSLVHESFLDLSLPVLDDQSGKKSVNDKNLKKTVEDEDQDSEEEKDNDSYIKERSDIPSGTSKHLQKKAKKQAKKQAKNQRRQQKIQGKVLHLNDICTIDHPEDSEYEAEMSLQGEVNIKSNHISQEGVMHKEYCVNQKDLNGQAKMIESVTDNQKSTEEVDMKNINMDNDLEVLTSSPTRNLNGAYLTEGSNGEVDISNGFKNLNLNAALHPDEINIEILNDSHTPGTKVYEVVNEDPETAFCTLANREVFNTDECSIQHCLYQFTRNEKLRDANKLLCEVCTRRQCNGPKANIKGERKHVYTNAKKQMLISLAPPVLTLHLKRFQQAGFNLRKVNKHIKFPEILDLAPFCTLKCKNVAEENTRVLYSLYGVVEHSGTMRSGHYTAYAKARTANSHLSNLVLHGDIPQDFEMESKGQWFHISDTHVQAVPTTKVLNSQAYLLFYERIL
Sequence of CDK5 C157 (Q00535) (Q00535 whole entry): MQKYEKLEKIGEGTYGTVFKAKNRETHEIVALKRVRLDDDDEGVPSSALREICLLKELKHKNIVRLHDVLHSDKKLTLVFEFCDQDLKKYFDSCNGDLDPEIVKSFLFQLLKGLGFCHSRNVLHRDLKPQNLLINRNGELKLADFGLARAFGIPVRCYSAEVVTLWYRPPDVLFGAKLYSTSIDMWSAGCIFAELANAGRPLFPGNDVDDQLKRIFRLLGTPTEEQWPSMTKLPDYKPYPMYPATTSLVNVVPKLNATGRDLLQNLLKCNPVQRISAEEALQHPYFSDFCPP

Compound: C=CC(=O)N(c1ccccc1)c1ccc(Br)cc1 [compound 5]
isoTOP-ABPP ratio Q14790_C360 (CASP8 C360 (Q14790); 500 μM, 231): 1.0
isoTOP-ABPP ratio Q14790_C360 (CASP8 C360 (Q14790); 500 μM, ramos): 1.3
isoTOP-ABPP ratio, P50851_C1704 (LRBA C1704 (P50851); 500 μM, invitro, ramos): 3.6
isoTOP-ABPP ratio, P16455_C145 (MGMT C145 (P16455); 500 μM, invitro, ramos): 2.0
isoTOP-ABPP ratio, Q00535_C157 (CDK5 C157 (Q00535); 500 μM, invitro, ramos): 20.0
isoTOP-ABPP ratio, Q9Y5T5_C205 (USP16 C205 (Q9Y5T5); 500 μM, ramos): 1.1
isoTOP-ABPP ratio, Q16877_C159 (PFKFB4 C159 (Q16877); ramos): 20.0

Compound: CC(C)CCOCCNC(=O)CCl [compound 27]
isoTOP-ABPP ratio (reactivity profile), Q14790_C360 (CASP8 C360 (Q14790); 500 μm in-vitro ramos): 1.2
isoTOP-ABPP ratio (reactivity profile), Q14790_C360 (CASP8 C360 (Q14790); 500 μm in-vitro ramos_231): 0.8
isoTOP-ABPP ratio (reactivity profile), O94953_C694 (KDM4B C694 (O94953); 500 μm in-vitro ramos_231): 1.4 and 1.0
isoTOP-ABPP ratio (reactivity profile), P50851_C1704 (LRBA C1704 (P50851); 500 μm in-vitro ramos_231): 1.1
isoTOP-ABPP ratio (reactivity profile), P16455_C145 (MGMT C145 (P16455); 500 μm in-vitro ramos): 20.0
isoTOP-ABPP ratio (reactivity profile), Q00535_C157 (CDK5 C157 (Q00535)): 1.0
isoTOP-ABPP ratio (reactivity profile), Q9Y5T5_C205 (USP16 C205 (Q9Y5T5); 500 μm in-vitro ramos): 0.9
isoTOP-ABPP ratio (reactivity profile), Q9Y5T5_C205 (USP16 C205 (Q9Y5T5); 500 μm in-vitro ramos_231): 1.6

Compound: O=C(CCl)N1CCOCC1 [compound 22]
isoTOP-ABPP ratio (reactivity profile), Q00535_C157 (CDK5 C157 (Q00535)): 0.9
isoTOP-ABPP ratio (reactivity profile), Q9Y5T5_C205 (USP16 C205 (Q9Y5T5); 500 μm in-vitro ramos): 1.6

Compound: O=C(CCl)NC(=O)NC12CC3CC(CC(C3)C1)C2 [compound 12]
isoTOP-ABPP ratio, Q00535_C157 (CDK5 C157 (Q00535); 500 μM, invitro, ramos): 1.0
isoTOP-ABPP ratio, Q9Y5T5_C205 (USP16 C205 (Q9Y5T5); 500 μM, 231): 2.2

Compound: O=C(CCl)NC12CC3CC(CC(C3)C1)C2 [compound 21]
isoTOP-ABPP ratio (reactivity profile), Q14790_C360 (CASP8 C360 (Q14790); 500 μm in-vitro ramos): 1.9
isoTOP-ABPP ratio (reactivity profile), Q14790_C360 (CASP8 C360 (Q14790); 500 μm in-vitro ramos_231): 1.9
isoTOP-ABPP ratio (reactivity profile), O94953_C694 (KDM4B C694 (O94953); 500 μm in-vitro ramos): 1.8
isoTOP-ABPP ratio (reactivity profile), P50851_C1704 (LRBA C1704 (P50851); 500 μm in-vitro ramos): 1.6
isoTOP-ABPP ratio (reactivity profile), Q9Y5T5_C205 (USP16 C205 (Q9Y5T5); 500 μm in-vitro ramos_231): 1.6
isoTOP-ABPP ratio (reactivity profile), Q16877_C159 (PFKFB4 C159 (Q16877); 500 μm in-vitro ramos): 1.2

Compound: Cc1ccc(C=C(C#N)C(=O)NCCN2CCOCC2)cc1 [compound 41]
isoTOP-ABPP reactivity ratio, Q14790_C360 (CASP8 C360 (Q14790); in-vitro_ramos): 0.8
isoTOP-ABPP reactivity ratio, Q14790_C360 (CASP8 C360 (Q14790); in-vitro_ramos_231): 1.0
isoTOP-ABPP reactivity ratio, P16455_C145 (MGMT C145 (P16455); 500 μm, in-vitro_ramos_231): 1.9
isoTOP-ABPP reactivity ratio, Q00535_C157 (CDK5 C157 (Q00535); in-vitro_ramos_231): 1.5
isoTOP-ABPP reactivity ratio, Q9Y5T5_C205 (USP16 C205 (Q9Y5T5); 500 μm, in-vitro_ramos_231): 0.8

Compound: CC(C)(C)c1cc(NC(=O)CCl)on1 [compound 32]
isoTOP-ABPP reactivity ratio, P50851_C1704 (LRBA C1704 (P50851); 500 μm, in-vitro_ramos): 2.0
isoTOP-ABPP reactivity ratio, P16455_C145 (MGMT C145 (P16455); 500 μm, in-vitro_ramos): 20.0
isoTOP-ABPP reactivity ratio, Q00535_C157 (CDK5 C157 (Q00535); in-vitro_ramos): 1.7
isoTOP-ABPP reactivity ratio, Q00535_C157 (CDK5 C157 (Q00535); in-vitro_ramos_231): 1.7
isoTOP-ABPP reactivity ratio, Q16877_C159 (PFKFB4 C159 (Q16877)): 1.5

Compound: CNS(=O)(=O)C=Cc1ccc2c(ccn2Cc2ccccc2)c1 [compound 6]
isoTOP-ABPP ratio, O94953_C694 (KDM4B C694 (O94953); invitro, 231): 1.1

Compound: N#CC(=Cc1ccc(-c2ccccc2Cl)o1)C(N)=O [compound 42]
isoTOP-ABPP reactivity profile ratio, O94953_C694 (KDM4B C694 (O94953); 500 μm, in-vitro_ramos): 0.9
isoTOP-ABPP reactivity profile ratio, P16455_C145 (MGMT C145 (P16455); 500 μm, in-vitro_ramos): 0.9
isoTOP-ABPP reactivity profile ratio, Q9Y5T5_C205 (USP16 C205 (Q9Y5T5); 500 μm, in-vitro_ramos): 1.5

Other lines, results leading:

R value (DMSO/fragment) (CASP8 C360 (Q14790); 500 μM, in vitro, MDA-MB-231): 9.8
R value (DMSO/fragment) (KDM4B C694 (O94953); in vitro, MDA-MB-231): 20.0
R value (DMSO/fragment) (KDM4B C694 (O94953); invitro, ramos): 5.1
R value (DMSO/fragment) (LRBA C1704 (P50851); 500 μM, invitro, ramos): 3.4
R value (DMSO/fragment) (MGMT C145 (P16455); 500 μM, invitro, ramos): 20.0
R value (DMSO/fragment) (CDK5 C157 (Q00535); 500 μM, invitro, ramos): 3.2
R value (DMSO/fragment) (USP16 C205 (Q9Y5T5); 500 μM, in vitro, MDA-MB-231): 20.0
Compound: COc1ccc2c(c1)CCCN2C(=O)CCl [compound 2]

isoTOP-ABPP reactivity ratio, Q00535_C157 (CDK5 C157 (Q00535); in-vitro_ramos_231): 0.7
isoTOP-ABPP reactivity ratio, Q16877_C159 (PFKFB4 C159 (Q16877)): 1.4
Compound: O=C(CCl)N(Cc1ccc(F)cc1)C12CC3CC(CC(C3)C1)C2 [compound 34]

isoTOP-ABPP ratio Q14790_C360 (CASP8 C360 (Q14790); 500 μM, 231): 2.8
isoTOP-ABPP ratio Q14790_C360 (CASP8 C360 (Q14790); 500 μM, ramos): 1.5
isoTOP-ABPP ratio, O94953_C694 (KDM4B C694 (O94953); invitro, ramos): 1.4
isoTOP-ABPP ratio, P50851_C1704 (LRBA C1704 (P50851); 500 μM, invitro, ramos): 0.8
isoTOP-ABPP ratio, Q16877_C159 (PFKFB4 C159 (Q16877); 231): 1.2
Compound: O=C(CCl)N1CCN(S(=O)(=O)c2ccccc2F)CC1 [compound 10]

isoTOP-ABPP reactivity profile ratio, Q9Y5T5_C205 (USP16 C205 (Q9Y5T5); 500 μm, in-vitro_ramos_231): 1.0
Compound: C=CC(=O)N(c1ccccc1)C1CCCCC1 [compound 46]

isoTOP-ABPP reactivity ratio, Q14790_C360 (CASP8 C360 (Q14790); in-vitro_ramos): 1.3
isoTOP-ABPP reactivity ratio, O94953_C694 (KDM4B C694 (O94953); 500 μm, in-vitro_ramos): 1.1
isoTOP-ABPP reactivity ratio, P50851_C1704 (LRBA C1704 (P50851); 500 μm, in-vitro_ramos): 1.1
Compound: O=C(CCl)Nc1ccccc1C1CCCCCC1 [compound 35]

isoTOP-ABPP reactivity profile ratio, O94953_C694 (KDM4B C694 (O94953); 500 μm, in-vitro_ramos): 1.4
isoTOP-ABPP reactivity profile ratio, P50851_C1704 (LRBA C1704 (P50851); 500 μm, in-vitro_ramos): 1.1
Compound: O=C(CCl)Nc1ccc(-c2ccccc2)cc1 [compound 52]
